The values below come from the supplement of paper PMC11368000.

Holding throughout (settings): exposure time: 90 min
In experiment [1] the test system is 1118 (donor line of iPSC-derived cardiomyocytes). In words: POD (EC05) for decrease in beat frequency (negative chronotrope) vs vehicle; higher = less potent (higher point of departure). The procedure, abridged:
(§1)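 Human iPSC-derived cardiomyocytes from 16 donors, dye-loaded for Ca2+, were treated for 90 min at 37 °C at final concentrations of 0.1, 1, 10 and 100 µM in 0.5% DMSO. Ca2+ flux was measured on a FLIPR Tetra before and after treatment. Hierarchical Bayesian Hill fitting of vehicle-normalised beat frequency, decay-to-rise ratio or peak frequency yielded donor-specific points of departure. Thresholds: 5% change, or 95% loss for peak frequency.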

In the next experiment the test system is 1309 (donor line of iPSC-derived cardiomyocytes). In words: POD (EC05) for increase in beat frequency (positive chronotrope) vs vehicle; higher = less potent (higher point of departure). On the procedure: (§2)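 Human iPSC-derived cardiomyocytes from 16 donors were exposed for 90 min at 37 °C to each PFAS at 0.1, 1, 10 and 100 µM in 0.5% DMSO, 384-well plates. Kinetic Ca2+ flux (FLIPR) and Hoechst nuclei counts were normalised to vehicle wells and fitted with a hierarchical Bayesian Hill model to give donor-specific PODs: EC05 for beat-rate increase or decrease and for decay-to-rise ratio increase (QT proxy), EC95 for peak-frequency loss (asystole), EC10 for total cell number loss. 0.03 µM is the lower bound.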

The next experiment deals with 1535 (donor line of iPSC-derived cardiomyocytes). The experiment is described as above. On the procedure:
as §2

For a further experiment, the system named is 1368 (donor line of iPSC-derived cardiomyocytes). The experiment is described as above. The protocol:
as §2

For experiment [2], the system named is 1531 (donor line of iPSC-derived cardiomyocytes). The experiment is described as above. On the procedure:
as §2

Another experiment relates to 1434 (donor line of iPSC-derived cardiomyocytes). The experiment is described as above. The protocol: as §2
Experiment [3] deals with 1518 (donor line of iPSC-derived cardiomyocytes). The experiment is described as above. On the procedure: as §2
Another experiment relates to 1083 (donor line of iPSC-derived cardiomyocytes). Described as above. On the procedure:
as §2

For another experiment, the system named is 11235 (donor line of iPSC-derived cardiomyocytes). The description is as above. The protocol:
as §2

A further experiment has as its system 20084 (donor line of iPSC-derived cardiomyocytes). The description is as above. The protocol: as §2
In experiment [4] the test system is 1516 (donor line of iPSC-derived cardiomyocytes). Described as above. On the procedure:
as §2

The subject of a further experiment is 1565 (donor line of iPSC-derived cardiomyocytes). Described as above. On the procedure:
as §2

The subject of a further experiment is 20032 (donor line of iPSC-derived cardiomyocytes). The experiment is described as above. On the procedure:
as §2

For another experiment, the system named is 30171 (donor line of iPSC-derived cardiomyocytes). The description is as above. The protocol: as §2
For a further experiment, the system named is 30145 (donor line of iPSC-derived cardiomyocytes). The experiment is described as above. On the procedure:
as §2

For the next experiment, the system named is 1392 (donor line of iPSC-derived cardiomyocytes). The experiment is described as above. The protocol: as §2
The subject of experiment [5] is 1118. The experiment is described as above. On the procedure:
as §2

Experiment [6] relates to 1518. Description: POD (EC05) for increase in Ca2+ transient decay-to-rise ratio (QT prolongation) vs vehicle; higher = less potent (higher point of departure). The procedure, abridged: as §1
Experiment [7] concerns 1516. The experiment is described as above. Put shortly: as §1
For experiment [8], the system named is 1531. Described as above. Put shortly:
as §1

As to `O=S(=O)([O-])C(F)(F)C(F)(F)C(F)(F)C(F)(F)F.[K+]` [Potassium_perfluorobutanesulfonate], the POD vs vehicle was 33.8 µM in the experiment on 1118 [1]; over 100 µM in the experiment on 1309; over 100 µM in the experiment with 1535; over 100 µM with 1368; over 100 µM with 1531 [2]; over 100 µM with 1434. Also, the POD vs vehicle with 1518 [3], with 1083, in the experiment on 11235, with 20084, in the experiment on 1516 [4] and in the experiment with 1565 was over 100 µM each time. The POD vs vehicle in the experiment with 20032, in the experiment on 30171, in the experiment on 30145, in the experiment with 1392, in the experiment on 1118 [5] and in the experiment with 1518 [6] was over 100 µM each time. Further, in the experiment on 1516 [7], the POD vs vehicle was over 100 µM.
Take `NC(O)(C(F)(F)F)C(F)(F)F` [2-Aminohexafluoropropan-2-ol]: the POD vs vehicle is 16.9 µM with 1118 [1]; over 100 µM with 1309; over 100 µM in the experiment on 1535; over 100 µM with 1368; over 100 µM in the experiment with 1531 [2]; over 100 µM in the experiment on 1434. In addition, the POD vs vehicle in the experiment on 1518 [3], with 1083, in the experiment on 11235, in the experiment on 20084, with 1516 [4] and in the experiment with 1565 was over 100 µM each time. Further, the POD vs vehicle in the experiment on 20032, in the experiment on 30171, in the experiment on 1392, with 1118 [5] and with 1531 [8] was over 100 µM throughout.
Consider `O=C(O)C(F)(F)C(F)(F)C(F)(F)OC(F)(C(F)(F)F)C(F)(F)F` [Perfluoro-4-isopropoxybutanoic_acid], for which the POD vs vehicle with 1118 [1], in the experiment on 1309, in the experiment with 1535, with 1368, with 1531 [2] and in the experiment on 1434 was over 100 µM in each case. Moreover, the POD vs vehicle in the experiment with 1518 [3], in the experiment on 1083, in the experiment with 11235, in the experiment on 20084, with 1516 [4] and in the experiment on 1565 was over 100 µM throughout. For the same compound, the POD vs vehicle in the experiment with 20032, in the experiment with 30171, with 30145, with 1392, with 1118 [5] and in the experiment with 1518 [6] was over 100 µM each time. In the experiment with 1516 [7], the POD vs vehicle is over 100 µM.
Turning to `NC(=O)C(F)(F)C(F)(F)C(F)(F)C(F)(F)F` [Nonafluoropentanamide], the POD vs vehicle in the experiment on 1118 [1] is 17.3 µM; with 1309 it was over 100 µM; in the experiment on 1535 it was over 100 µM; in the experiment with 1368, over 100 µM; in the experiment on 1531 [2], over 100 µM; in the experiment with 1434, over 100 µM. Also, the POD vs vehicle in the experiment on 1518 [3], with 1083, with 11235, in the experiment with 20084, in the experiment with 1516 [4] and with 1565 was over 100 µM throughout. The POD vs vehicle was over 100 µM in the experiment with 20032; over 100 µM in the experiment with 30171; over 100 µM with 30145; over 100 µM in the experiment with 1392; over 100 µM with 1118 [5]; 0.612 µM with 1518 [6]. Besides, the POD vs vehicle in the experiment on 1516 [7] was over 100 µM.
For the compound `OCC(F)(F)C(F)(F)C(F)(F)F` [Heptafluorobutanol], the POD vs vehicle in the experiment with 1118 [1], in the experiment on 1309, with 1535, with 1368, in the experiment with 1531 [2] and in the experiment with 1434 was over 100 µM in each case. In addition, the POD vs vehicle in the experiment with 1518 [3], in the experiment on 1083, in the experiment on 11235, with 20084, with 1516 [4] and with 1565 was over 100 µM in each case. Besides, the POD vs vehicle with 20032, with 30171, with 1392, with 1118 [5] and in the experiment on 1531 [8] was over 100 µM each time.
As to `O=C(CC(=O)C(F)(F)C(F)(F)F)C(F)(F)F` [3H,3H-Perfluoro-2,4-hexanedione], the POD vs vehicle is 24.6 µM in the experiment on 1118 [1]; over 100 µM in the experiment with 1309; over 100 µM with 1535; over 100 µM in the experiment on 1368; over 100 µM in the experiment with 1531 [2]; over 100 µM with 1434. Besides, the POD vs vehicle in the experiment with 1518 [3], in the experiment on 1083, in the experiment with 11235, in the experiment on 20084, with 1516 [4] and with 1565 was over 100 µM throughout. The POD vs vehicle in the experiment on 20032, in the experiment on 30171, in the experiment with 30145, in the experiment with 1392, in the experiment on 1118 [5] and in the experiment with 1518 [6] was over 100 µM each time. Also, the POD vs vehicle in the experiment on 1516 [7] was over 100 µM.
